From patent publication EP0044992A1, “Lactams, process for their preparation and pharmaceutical compositions containing them” (Dr. Karl Thomae GmbH, priority 1980, dated 1982)
In brackets after ≈: the same amount, converted by molar mass.

Columns and labels:
[1] = tested on: E. coli R+TEM (ß-Lactamase-Träger); experiment: Serial dilution test in microtiter system (bacteriostasis, MIC); type: cell-based; conditions: Escherichia coli, read-out: Minimale Hemmkonzentration E.coli R+TEM
Method: (§1) Für die Untersuchungen wurde die Methode des Reihenverdünnungstestes im Mikrotitersystem angewandt. Die Prüfung der Substanzen auf Bakteriostase erfolgte in flüssigem Medium. Es wurde die Bakteriostasewirkung bei folgenden Konzentrationen untersucht: • 128, 64, 32, 16, 8, 4, 2, 1, 0,5, 0,25, 0,12, 0,06jug/ml. Es wurde ein Nährboden folgender Zusammensetzung benutzt: 10 g Pepton, 8 g Fleischextrakt-Oxoid, 3 g Natriumchlorid, 2 g sek. Natriumphosphat werden mit dest. Wasser auf […] aufgefüllt (pH 7,2 - 7,4). Lediglich bei der Testung gegen Streptokokken wurde 1 % Glucose hinzugefügt. Das Alter der Primärkulturen betrugt etwa 20 Stunden. Die Einstellung der Keimsuspension erfolgte am Photometer (nach "Eppendorf") (Reagenzglas-Durchmesser 14 mm, Filter 546nm) anhand der Trübung einer Bariumsulfat-Vergleichssuspension, die durch eine Bariumsulfat-Aufschwemmung erzeugt wurde, welche durch die Zugabe von 3,0 ml 1%ige Barium-chloridlösung in 97 ml 1%ige Schwefelsäure entstand. Nach der Einstellung wurden Streptococcus Aronson im Verhältnis 1:15 und die übrigen Testkeime im Verhältnis 1:1500 mit einer Kochsalzlösung weiter verdünnt.
(§2) 16 mg der jeweiligen Substanz wurden in 10 ml-Meßkolben eingewogen und mit dem Lösungsmittel bis zur Marke aufgefüllt. Die weitere Verdünnungsreihe wurde mit destilliertem Wasser oder dem jeweiligen Lösungsmittel hergestellt.
(§3) Die Vertiefungen der Mikrotiterplatten wurden mit 0,2 ml Nährmedium, 0,01 ml der entsprechenden Substanzverdünnung und mit einem Tropfen Keimsuspension (0,01 ml) beschickt und 18 bis 20 Stunden bei 37 °C bebrütet. Eine Lösungsmittelkontrolle wurde stets mitgeführt.
(§4) Die Ablesung wurde makroskopisch vorgenommen, wobei die jeweilige Grenzkonzentration (= niedrigste noch bakteriostatisch wirksame Konzentration) ermittelt wurde.
(§5) Als Testorganismen wurden benützt: • Staphylococcus aureus SG 511, Escherichia coli ATCC 11 775, Pseudomonas aeruginosa Hamburgensis und Pseudomonas; aeruginosa walter, Serratia marcescens ATCC 13 880, Klebsiella pneumoniae ATCC 10 031 und BC 6, Proteus mirabilis Hamburgensis, Proteus rettgeri, Enterobacter cloacae ATCC 13 047, E. coli R+TEM (ß-Lactamase-Träger).

[2] = tested on: Enterobacter cloacae ATCC 13 047; experiment: as above; type: cell-based; conditions: liquid medium, 18 to 20 h at 37 °C, read-out: Minimale Hemmkonzentration Ent. cloacae ATCC 13047
Method: as §1, §2, §3, §4, §5

[3] = tested on: Escherichia coli ATCC 11 775; experiment: as above; type: cell-based; conditions: liquid medium, 18 to 20 h at 37 °C, read-out: Minimale Hemmkonzentration E.coli ATCC 11775
Method: as §1, §2, §3, §4, §5

[4] = tested on: Klebsiella pneumoniae ATCC 10 031; experiment: as above; type: cell-based; conditions: liquid medium, 18 to 20 h at 37 °C, read-out: Minimale Hemmkonzentration Kl.pneum. ATCC 10031
Method: as §1, §2, §3, §4, §5

[5] = tested on: Klebsiella pneumoniae BC 6; experiment: as above; type: cell-based; conditions: BC6, liquid medium, 18 to 20 h at 37 °C, read-out: Minimale Hemmkonzentration Kl.pneum. BC 6
Method: as §1, §2, §3, §4, §5

[6] = tested on: Proteus mirabilis Hamburgensis; experiment: as above; type: cell-based; conditions: liquid medium, 18 to 20 h at 37 °C, read-out: Minimale Hemmkonzentration Prot. mirab. Hbg.
Method: as §1, §2, §3, §4, §5

Proteus rettgeri = experiment: as above; type: cell-based; conditions: Providencia rettgeri; liquid medium, 18 to 20 h at 37 °C; read-out: Minimale Hemmkonzentration Prot. Rettg.
Method: as §1, §2, §3, §4, §5

[7] = tested on: Pseudomonas aeruginosa Hamburgensis; experiment: as above; type: cell-based; conditions: liquid medium, 18 to 20 h at 37 °C, read-out: Minimale Hemmkonzentration Pseud. Hbg.
Method: as §1, §2, §3, §4, §5

[8] = tested on: Pseudomonas aeruginosa walter; experiment: as above; type: cell-based; conditions: liquid medium, 18 to 20 h at 37 °C, read-out: Minimale Hemmkonzentration Pseud.W.
Method: as §1, §2, §3, §4, §5

[9] = tested on: Serratia marcescens ATCC 13 880; experiment: as above; type: cell-based; conditions: liquid medium, 18 to 20 h at 37 °C, read-out: Minimale Hemmkonzentration Serr. marcesc. ATCC 13880
Method: as §1, §2, §3, §4, §5

[10] = tested on: Staphylococcus aureus SG 511; experiment: as above; type: cell-based; conditions: SG511, liquid medium, 18 to 20 h at 37 °C, read-out: Minimale Hemmkonzentration Staph. aureus SG 511
Method: as §1, §2, §3, §4, §5

E. coli ATCC 11 775 = experiment: In vivo activity, experimental intraperitoneal E. coli infection in mice; parameters: species or system Mäuse; conditions: Escherichia coli, ATCC11, sc, 168 h; female NMRI mice, i.p. E. coli infection, s.c. application once 1 h after infection, 7 days observation; dose at which 50 % of animals survive
Method: Eine Reihe von erfindungsgemäßen Verbindungen wurde in vivo bei experimentellen Infektionen an Mäusen untersucht. Man verwendete als pathogene Bakterien E. coli ATCC 11 775. Es wurde eine intraperitoneale Infektion mit 0,2 ml einer Bakteriensuspension (mit 5 % Mucin) gesetzt. Dies entspricht etwa 1,4 x 10^6 Keime E. coli/Maus. Weibliche Mäuse vom Stamm NMRI wurden in Gruppen von jeweils 10 Tieren aufgeteilt, zwei Gruppen blieben unbehandelt, die restlichen Gruppen wurden mit verschiedenen Dosen der jeweiligen erfindungsgemäßen Penicilline und Cephalosporine subcutan zur Bestimmung der ED50 (Dosis bei der 50 % der Tiere überleben) behandelt. Es wurde einmal eine Stunde: nach Setzen der Injektion therapiert.
Der Beobachtungszeitraum betrug in beiden Fällen 7 Tage. Die Ergebnisse dieser Teste mit repräsentativen Vertretern der erfindungsgemäßen Penicilline und Cephalosporine sind in der Tabelle 2 dargestellt.

With `CC(=O)Oc1ccc([C@@H](NC(=O)Nc2cnc(Nc3ccc(S(N)(=O)=O)cc3)nc2O)C(=O)N[C@@H]2C(=O)N3[C@@H]2SC(C)(C)[C@@H]3C(=O)O)cc1` [B, D-α-[3-(2-p-Aminosulfonylanilino-4-hydroxy-5-pyrimidinyl)-ureido]-p-methylcarbonyloxy-benzylpenicillin-Natrium] the MIC [1] was greater than 64 µg/mL, the MIC [2] was 2 µg/mL (≈ 2.8 µM) and the MIC [3] was 0.25 µg/mL (≈ 0.35 µM). For the same compound, the MIC [4] was 4 µg/mL (≈ 5.6 µM), the MIC [5] was 2 µg/mL (≈ 2.8 µM) and the MIC [6] was 0.12 µg/mL (≈ 0.168 µM). The MIC (Proteus rettgeri) was 2 µg/mL (≈ 2.8 µM), the MIC [7] was 4 µg/mL (≈ 5.6 µM) and the MIC [8] was 2 µg/mL (≈ 2.8 µM). It also gave an MIC [9] of 0.5 µg/mL (≈ 0.7 µM), an MIC [10] of 0.5 µg/mL (≈ 0.7 µM) and an ED50 (E. coli ATCC 11 775) of 4.5 mg/kg.
`CCOC(=O)Oc1ccc([C@@H](NC(=O)Nc2cnc(Nc3ccc(S(N)(=O)=O)cc3)nc2O)C(=O)N[C@@H]2C(=O)N3C(C(=O)O)=C(CSc4nnnn4C)CS[C@H]23)cc1` [C, Natrium-7-{D-α-[3-(2-p-aminosulfonylanilino-4-hydroxy-5-pyrimidinyl)-ureido]-p-äthoxy-carbonyloxy-phenylacetamido}-3-[(1-methyl-tetrazol-5-yl)-thiomethyl]-ceph-3-em-4-carboxylat] showed an MIC [1] of 4 µg/mL (≈ 4.67 µM), an MIC [2] of 0.5 µg/mL (≈ 0.584 µM) and an MIC [3] of 0.12 µg/mL (≈ 0.14 µM). It also gave an MIC [4] of 0.5 µg/mL (≈ 0.584 µM), an MIC [5] of 0.25 µg/mL (≈ 0.292 µM) and an MIC [6] of 0.12 µg/mL (≈ 0.14 µM). The MIC (Proteus rettgeri) was 1 µg/mL (≈ 1.17 µM), the MIC [7] was 8 µg/mL (≈ 9.34 µM) and the MIC [8] was 4 µg/mL (≈ 4.67 µM). For the same compound, the MIC [9] was 0.25 µg/mL (≈ 0.292 µM), the MIC [10] was 1 µg/mL (≈ 1.17 µM) and the ED50 (E. coli ATCC 11 775) was 0.6 mg/kg.
For `CC(=O)Oc1ccc([C@@H](NC(=O)Nc2cnc(Nc3ccc(S(N)(=O)=O)cc3)nc2O)C(=O)N[C@@H]2C(=O)N3C(C(=O)O)=C(CSc4nnnn4C)CS[C@H]23)cc1` [D, Natrium-7-{D-α-[3-(2-p-aminosulfonyl-anilino-4-hydroxy-5-pyrimidinyl)-ureido]-p-methylcarbonyloxy-phenylacetamido}-3-[(1-methyl-tetrazol-5-yl)-thiomethyl]-ceph-3-em-4-carboxylat], the MIC [1] was 16 µg/mL (≈ 19.4 µM), the MIC [2] was 4 µg/mL (≈ 4.84 µM) and the MIC [3] was 0.5 µg/mL (≈ 0.605 µM). It also gave an MIC [4] of 2 µg/mL (≈ 2.42 µM), an MIC [5] of 1 µg/mL (≈ 1.21 µM) and an MIC [6] of 0.25 µg/mL (≈ 0.302 µM). It also gave an MIC (Proteus rettgeri) of 2 µg/mL (≈ 2.42 µM), an MIC [7] of 16 µg/mL (≈ 19.4 µM) and an MIC [8] of 8 µg/mL (≈ 9.68 µM). The MIC [9] was 2 µg/mL (≈ 2.42 µM), the MIC [10] was 1 µg/mL (≈ 1.21 µM) and the ED50 (E. coli ATCC 11 775) was 3 mg/kg.
`CCOC(=O)Oc1ccc([C@@H](NC(=O)Nc2cnc(Nc3ccc(S(N)(=O)=O)cc3)nc2O)C(=O)N[C@@H]2C(=O)N3[C@@H]2SC(C)(C)[C@@H]3C(=O)O)cc1` [A, D-α-[3-(2-p-Aminosulfonylanilino-4-hydroxy-5-pyrimidinyl)-ureido]-p-äthoxycarbonyloxy-benzylpenicillin-Natrium] showed an MIC [1] greater than 64 µg/mL, an MIC [2] of 1 µg/mL (≈ 1.34 µM) and an MIC [3] of 0.25 µg/mL (≈ 0.336 µM). For the same compound, the MIC [4] was 2 µg/mL (≈ 2.69 µM), the MIC [5] was 2 µg/mL (≈ 2.69 µM) and the MIC [6] was 0.12 µg/mL (≈ 0.161 µM). The MIC (Proteus rettgeri) was 1 µg/mL (≈ 1.34 µM), the MIC [7] was 2 µg/mL (≈ 2.69 µM) and the MIC [8] was 2 µg/mL (≈ 2.69 µM). The MIC [9] was 0.25 µg/mL (≈ 0.336 µM), the MIC [10] was 0.5 µg/mL (≈ 0.671 µM) and the ED50 (E. coli ATCC 11 775) was 5.5 mg/kg.
Work on `CC1(C)S[C@@H]2[C@H](NC(=O)[C@H](NC(=O)N3CCNC3=O)c3ccccc3)C(=O)N2[C@H]1C(=O)O` [Azlocillin, reference compound] yielded an MIC [1] greater than 64 µg/mL, an MIC [2] of 32 µg/mL (≈ 69.3 µM) and an MIC [3] of 8 to 16 µg/mL (≈ 17.3 to 34.7 µM). It also gave an MIC [4] of 32 µg/mL (≈ 69.3 µM), an MIC [5] of 32 µg/mL (≈ 69.3 µM) and an MIC [6] of 2 µg/mL (≈ 4.33 µM). The MIC (Proteus rettgeri) was 8 µg/mL (≈ 17.3 µM), the MIC [7] was 8 µg/mL (≈ 17.3 µM) and the MIC [8] was 8 µg/mL (≈ 17.3 µM). For the same compound, the MIC [9] was 4 µg/mL (≈ 8.67 µM), the MIC [10] was 2 µg/mL (≈ 4.33 µM) and the ED50 (E. coli ATCC 11 775) was greater than 100 mg/kg.
`CO/N=C(\C(=O)N[C@@H]1C(=O)N2C(C(=O)O)=C(COC(N)=O)CS[C@H]12)c1ccco1` [Cefuroxim, reference compound] gave an MIC [1] of 4 µg/mL (≈ 9.43 µM), an MIC [2] of 32 µg/mL (≈ 75.4 µM) and an MIC [3] of 8 µg/mL (≈ 18.9 µM). It also gave an MIC [4] of 2 µg/mL (≈ 4.71 µM), an MIC [5] of 4 µg/mL (≈ 9.43 µM) and an MIC [6] of 0.5 µg/mL (≈ 1.18 µM). For the same compound, the MIC (Proteus rettgeri) was 2 µg/mL (≈ 4.71 µM), the MIC [7] was greater than 128 µg/mL and the MIC [8] was greater than 128 µg/mL. It also gave an MIC [9] of 8 µg/mL (≈ 18.9 µM), an MIC [10] of 1 µg/mL (≈ 2.36 µM) and an ED50 (E. coli ATCC 11 775) greater than 100 mg/kg.
